Results on one compound are retold here after US20220143023A1, “COMPOUNDS WITH ANTI-TUMOR ACTIVITY AGAINST CANCER CELLS BEARING EGFR OR HER2 EXON 20 INSERTIONS” (Board of Regents, The University of Texas System, priority 2019, published 2022).

The target of assay [1] is T1, Ba/F3 cells expressing EGFR D770insSVD (Homo sapiens, UniProt P00533, DUP768-770, cells depend on it).
T1 construct: from pBabe-puro-EGFR WT, Addgene (#11011)
The assay can be described thus: Ba/F3 cell viability, poziotinib IC50. The assay is classed as cell-based.

In assay [2] the target is Ba/F3 cells expressing EGFR D770insG (Homo sapiens, UniProt P00533, INS770G, cells depend on it). The assay is described as follows: Ba/F3 cell viability, poziotinib IC50. The assay is classed as cell-based.
Ba/F3 cells expressing EGFR D770insG, sequence (P00533 with tags, fused parts or gaps INS770G): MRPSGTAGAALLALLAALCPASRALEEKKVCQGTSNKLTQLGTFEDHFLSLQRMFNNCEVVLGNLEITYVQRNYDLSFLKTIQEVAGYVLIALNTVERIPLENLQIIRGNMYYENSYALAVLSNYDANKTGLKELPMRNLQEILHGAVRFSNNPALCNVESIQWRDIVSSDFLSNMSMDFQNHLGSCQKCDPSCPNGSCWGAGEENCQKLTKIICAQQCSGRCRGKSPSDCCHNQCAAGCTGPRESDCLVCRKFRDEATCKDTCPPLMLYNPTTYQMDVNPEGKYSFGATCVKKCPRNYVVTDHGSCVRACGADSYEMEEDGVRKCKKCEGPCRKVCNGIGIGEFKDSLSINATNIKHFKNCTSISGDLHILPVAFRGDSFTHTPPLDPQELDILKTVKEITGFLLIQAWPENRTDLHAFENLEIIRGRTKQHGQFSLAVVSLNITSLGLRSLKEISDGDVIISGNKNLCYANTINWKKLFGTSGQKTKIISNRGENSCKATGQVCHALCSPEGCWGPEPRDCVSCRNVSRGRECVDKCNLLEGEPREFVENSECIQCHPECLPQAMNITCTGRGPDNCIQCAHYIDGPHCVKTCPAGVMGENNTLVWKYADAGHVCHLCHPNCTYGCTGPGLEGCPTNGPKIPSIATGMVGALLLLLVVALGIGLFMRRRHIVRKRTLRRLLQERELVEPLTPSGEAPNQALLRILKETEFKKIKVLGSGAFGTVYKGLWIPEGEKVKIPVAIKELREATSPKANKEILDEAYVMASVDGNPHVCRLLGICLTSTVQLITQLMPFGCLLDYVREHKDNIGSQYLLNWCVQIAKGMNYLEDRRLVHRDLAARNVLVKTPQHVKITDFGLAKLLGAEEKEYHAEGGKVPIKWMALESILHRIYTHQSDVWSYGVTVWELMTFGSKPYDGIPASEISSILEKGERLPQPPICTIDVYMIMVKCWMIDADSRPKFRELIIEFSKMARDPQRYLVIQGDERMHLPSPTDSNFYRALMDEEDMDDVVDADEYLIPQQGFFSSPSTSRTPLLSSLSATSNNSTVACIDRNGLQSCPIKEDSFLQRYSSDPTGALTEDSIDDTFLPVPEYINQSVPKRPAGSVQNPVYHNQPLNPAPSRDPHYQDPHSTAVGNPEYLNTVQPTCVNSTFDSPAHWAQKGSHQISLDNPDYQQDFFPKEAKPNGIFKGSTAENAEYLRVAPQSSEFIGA
The test system of assay [3] is MCF10A cells expressing HER2 G776del insVC. The assay is described as follows: MCF10A cell viability, HER2 G776del insVC. The class given is cell-based, human. The protocol: Cells were treated with seven different concentrations of tyrosine kinase inhibitors or vehicle alone at a final volume of 40 µL, per well.
MCF10A cells were purchased from ATCC and were cultured in DMEM/F12 media supplemented with 1% penicillin/streptomycin, 5% horse serum (sigma), 20 ng/ml EGF, […], and 10 μg/ml insulin. […] Two days after transduction, 0.5 μg/ml puromycin (Invitrogen) was added to the RPMI media. After 14 days of selection, cells were tested in cell viability assays as described above. CW-2 cells were provided by the Riken cell line database under MTA, and were maintained in RPMI containing 10% FBS and 1% penicillin/streptomycin.

Assay [4] has as its system EGFR S768dupSVD NSCLC PDX. The assay is described as follows: EGFR S768dupSVD PDX model. The settings on record: poziotinib 2.5 mg/kg vs osimertinib 5 or 25 mg/kg, 5 days per week. The class given is in vivo, mice. The protocol: Drugs were administered to mice 5 days per week, and tumor volumes were measured three times per week. Symbols are representative of the mean±SEM tumor volume at each time point. Dot plots are representative of percent change in average tumor volume at day 21, where each dot represents a single mouse.

T1 sequence (P00533 with tags, fused parts or gaps DUP768-770): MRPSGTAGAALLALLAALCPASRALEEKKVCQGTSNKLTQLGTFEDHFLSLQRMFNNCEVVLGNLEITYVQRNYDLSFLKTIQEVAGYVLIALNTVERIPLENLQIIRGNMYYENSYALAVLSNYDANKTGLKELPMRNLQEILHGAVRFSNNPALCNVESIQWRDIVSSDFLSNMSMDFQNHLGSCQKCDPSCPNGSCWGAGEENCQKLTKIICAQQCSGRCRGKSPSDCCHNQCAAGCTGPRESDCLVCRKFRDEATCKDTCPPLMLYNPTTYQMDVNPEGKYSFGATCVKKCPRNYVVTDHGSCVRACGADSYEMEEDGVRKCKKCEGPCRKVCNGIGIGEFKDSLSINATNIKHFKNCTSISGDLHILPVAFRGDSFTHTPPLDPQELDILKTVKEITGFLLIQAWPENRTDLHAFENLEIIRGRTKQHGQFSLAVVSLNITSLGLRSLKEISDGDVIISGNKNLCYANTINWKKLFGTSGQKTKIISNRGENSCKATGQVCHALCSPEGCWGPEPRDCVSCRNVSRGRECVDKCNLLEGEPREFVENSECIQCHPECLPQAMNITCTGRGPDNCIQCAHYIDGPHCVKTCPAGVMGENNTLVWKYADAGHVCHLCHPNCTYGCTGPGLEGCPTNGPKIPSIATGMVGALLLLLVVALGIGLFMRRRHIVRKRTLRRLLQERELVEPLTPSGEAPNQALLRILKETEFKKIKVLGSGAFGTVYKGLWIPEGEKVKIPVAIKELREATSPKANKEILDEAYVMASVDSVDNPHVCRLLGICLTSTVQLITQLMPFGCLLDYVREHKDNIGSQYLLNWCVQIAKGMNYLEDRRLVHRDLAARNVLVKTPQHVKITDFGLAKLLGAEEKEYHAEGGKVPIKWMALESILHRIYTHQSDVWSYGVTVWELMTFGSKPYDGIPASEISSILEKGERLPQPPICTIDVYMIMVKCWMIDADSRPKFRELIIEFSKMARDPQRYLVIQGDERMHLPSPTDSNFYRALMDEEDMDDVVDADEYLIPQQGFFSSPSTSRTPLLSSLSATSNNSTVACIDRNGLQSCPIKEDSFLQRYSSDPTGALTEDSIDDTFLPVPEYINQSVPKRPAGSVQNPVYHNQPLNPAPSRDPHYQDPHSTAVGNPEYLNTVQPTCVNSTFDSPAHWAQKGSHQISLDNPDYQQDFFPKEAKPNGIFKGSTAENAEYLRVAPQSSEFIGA

As for `C=CC(=O)N1CCC(Oc2cc3c(Nc4ccc(Cl)c(Cl)c4F)ncnc3cc2OC)CC1` [poziotinib, 1-[4-[4-(3,4-dichloro-2-fluoroanilino)-7-methoxyquinazolin-6-yl]oxypiperidin-1-yl]prop-2-en-1-one], the concentration for 50% growth inhibition (GI50) is 2.38 nM in assay [1] and 1.49 nM in assay [2]. Further, 12 nM corresponded to half-maximal inhibition in assay [3] (Homo sapiens, MCF-10A, 72 hours) (IC50). Besides, the “sensitivity of MCF10A HER2 G776del insVC” value in assay [3] (dose response of cell viability) is “sensitive”. The “anti-tumor efficacy, EGFR S768dupSVD PDX” value in assay [4] is “more effective than high dose osimertinib”.

For orientation: GI50 means the concentration giving 50% growth inhibition. For orientation: IC50 means the concentration at which inhibition is half-maximal.
